Assay results from ChEMBL document CHEMBL6115011, “Optimizing biofilm inhibitors: Balancing activity and toxicity in 2N-aminated 5-aryl-2-aminoimidazoles” (Bioorg Med Chem, 2025).

Key:
Pseudomonas aeruginosa [1] = assay: Inhibition of biofilm formation in Pseudomonas aeruginosa PA14 at 25 degree C measured after 24 hrs by crystal violet staining based analysis; type: functional, organism-based; conditions: PA14, 24 h
Escherichia coli [2] = assay: Inhibition of biofilm formation in Escherichia coli TG1 at 25 degree C measured after 24 hrs by crystal violet staining based microplate reader analysis; type: functional, organism-based; conditions: TG1, 24 h
Escherichia coli [3] = assay: Antibacterial activity against Escherichia coli TG1 at 25 degree C measured after 24 hrs by crystal violet staining based microplate reader analysis; type: functional, organism-based; conditions: TG1, 24 h
Pseudomonas aeruginosa [4] = assay: Antibacterial activity against Pseudomonas aeruginosa PA14 at 25 degree C measured after 24 hrs by crystal violet staining based microplate reader analysis; type: functional, organism-based; conditions: PA14, 24 h
Staphylococcus aureus [5] = assay: Inhibition of biofilm formation in Staphylococcus aureus SH1000 at 25 degree C measured after 48 hrs by crystal violet staining based analysis; type: functional, organism-based; conditions: SH1000, 48 h
Staphylococcus aureus [6] = assay: Antibacterial activity against Staphylococcus aureus SH1000 at 25 degree C measured after 48 hrs by crystal violet staining based microplate reader analysis; type: functional, organism-based; conditions: SH1000, 48 h
Staphylococcus aureus [7] = assay: Inhibition of biofilm formation in methicillin-resistant Staphylococcus aureus at 25 degree C measured after 48 hrs by crystal violet staining based analysis; type: functional, organism-based
[8] = Cytotoxicity against human PBMC cells assessed as survival rate at 400 uM measured after 72 hrs by trypan blue staining based assay (reference value: 48%); type: toxicity, cell-based; conditions: read-out: Survival
[9] = Cytotoxicity against human PBMC cells assessed as survival rate at 25 to 100 uM measured after 72 hrs by trypan blue staining based assay; type: toxicity, cell-based; conditions: dose 25-100 µM
Staphylococcus aureus [10] = assay: Antibacterial activity against methicillin-resistant Staphylococcus aureus at 25 degree C measured after 48 hrs by crystal violet staining based microplate reader analysis; type: functional, organism-based
[11] = test system: Staphylococcus epidermidis; assay: Inhibition of biofilm formation in Staphylococcus epidermidis at 25 degree C measured after 48 hrs by crystal violet staining based analysis; type: functional, organism-based
[12] = Genotoxicity in human CAPAN-1 cells at 100 to 400 uM measured after 3 hrs by Western blot analysis; type: toxicity, cell-based; conditions: capan-1, 3 h, dose 100-400 µM
[13] = Toxicity in Caenorhabditis elegans CB5612 by wide field microscopy based analysis
[14] = Cytotoxicity against human PBMC cells assessed as survival rate at 400 uM measured after 72 hrs by trypan blue staining based assay relative to control; type: toxicity, cell-based; conditions: read-out: Survival
[15] = Cytotoxicity against human PBMC cells assessed as survival rate at 100 uM measured after 72 hrs by trypan blue staining based assay relative to control; type: toxicity, cell-based; conditions: read-out: Survival
HL-60 = assay: Cytotoxicity against human HL-60 cells assessed as inhibition of cell growth measured after 72 hrs by CellTiter 96 Aqueous One Solution Cell Proliferation Assay; type: functional
[16] = Genotoxicity in human CAPAN-1 cells assessed as fold change at 400 uM measured after 3 hrs by Western blot analysis; type: toxicity, cell-based; conditions: capan-1, 3 h
[17] = test system: Staphylococcus epidermidis; assay: Antibacterial activity against Staphylococcus epidermidis at 25 degree C measured after 48 hrs by crystal violet staining based microplate reader analysis; type: functional, organism-based
Z-138 = assay: Cytotoxicity against human Z138 cells assessed as inhibition of cell growth measured after 72 hrs by CellTiter 96 Aqueous One Solution Cell Proliferation Assay; type: functional
K562 = assay: Cytotoxicity against human K562 cells assessed as inhibition of cell growth measured after 72 hrs by CellTiter 96 Aqueous One Solution Cell Proliferation Assay; type: functional; conditions: Homo sapiens, K562, 72 h
[18] = Cytotoxicity against human PBMC cells assessed as survival rate at 25 uM measured after 72 hrs by trypan blue staining based assay relative to control; type: toxicity, cell-based; conditions: read-out: Survival
[19] = Cytotoxicity against human DND41 cells assessed as inhibition of cell growth measured after 72 hrs by CellTiter 96 Aqueous One Solution Cell Proliferation Assay; type: functional
HCT-116 = assay: Cytotoxicity against human HCT-116 cells assessed as inhibition of cell growth measured after 72 hrs by CellTiter 96 Aqueous One Solution Cell Proliferation Assay; type: functional
LN-229 = assay: Cytotoxicity against human LN-229 cells assessed as inhibition of cell growth measured after 72 hrs by CellTiter 96 Aqueous One Solution Cell Proliferation Assay; type: functional; conditions: Homo sapiens, LN-229, 72 h
CAPAN-1 = assay: Cytotoxicity against human CAPAN-1 cells assessed as inhibition of cell growth measured after 72 hrs by CellTiter 96 Aqueous One Solution Cell Proliferation Assay; type: functional
NCI-H460 = assay: Cytotoxicity against human NCI-H460 cells assessed as inhibition of cell growth measured after 72 hrs by CellTiter 96 Aqueous One Solution Cell Proliferation Assay; type: functional
[20] = Toxicity in Caenorhabditis elegans CB5612 assessed as increase in food depletion delay by wide field microscopy based analysis
[21] = Genotoxicity in human CAPAN-1 cells assessed as fold change at 100 uM measured after 3 hrs by Western blot analysis; type: toxicity, cell-based; conditions: capan-1, 3 h

Row | SMILES | IC50 (Pseudomonas aeruginosa [1]) [µM] | IC50 (Escherichia coli [2]) [µM] | IC50 (Escherichia coli [3]) [µM] | IC50 (Pseudomonas aeruginosa [4]) [µM] | IC50 (Staphylococcus aureus [5]) [µM] | IC50 (Staphylococcus aureus [6]) [µM] | IC50 (Staphylococcus aureus [7]) [µM] | IC50 (Staphylococcus aureus [10]) [µM] | IC50 [11] [µM] | fold change (FC) [16] | IC50 [17] [µM] | further results
1 | CCCCCCCCNc1ncc(-c2ccc(Cl)cc2)[nH]1 | > 200 | 8.42 | 72.3 | 70.2 | 43.1 | 84.4 | – | – | – | – | – | –
2 | NCCCCCCCCn1c(-c2ccccc2)cnc1NC1CCCC1 | 107 | 33.5 | 85.1 | 74.4 | 70.4 | 79.4 | – | – | – | – | – | –
3 | CCCCCCCCn1c(-c2ccccc2)cnc1NC1CCCC1 | > 800 | 6.55 | 8.37 | 20.6 | 8.34 | 8.35 | – | – | – | – | – | –
4 | NCCCCNc1ncc(-c2ccccc2)[nH]1 | 17 | 35.3 | 56.6 | 85.8 | 155 | 287 | 138 | 578 | 33.3 | – | – | viability at 72 h, 400 µM [8]: 9%; Activity [9]: Non-toxic; Activity [12]: Non-toxic
5 | NCCCCNc1ncc(-c2ccc(F)cc2)[nH]1 | 4.5 | 14.9 | 31.5 | 34.6 | 167 | 176 | 98.1 | 217 | 6.1 | – | – | Activity [13]: Toxic
6 | NCCCCCCCCn1c(-c2ccc(Br)cc2)cnc1NC1CCCC1 | 147 | 25.2 | 43.4 | 61.4 | 167 | 56.1 | – | – | – | – | – | viability at 72 h, 400 µM [14]: 48%
7 | NCCCCCCCCNc1ncc(-c2ccc(Cl)cc2)[nH]1 | 19.2 | 16.6 | 16.9 | 21 | 15.8 | 12.5 | 34.8 | 93.7 | 59.6 | 12.1 | 51.2 | viability at 72 h, 100 µM [15]: 17.5%; CC50 (HL-60): 20 µM; CC50 (Z-138; 72 h): 20 µM; CC50 (Z-138; Homo sapiens, Z-138, 72 h): 21.6 µM; viability at 72 h, 400 µM [14]: 0.5%; CC50 (K562): 20 µM; viability at 72 h, 25 µM [18]: 79.6%; CC50 [19]: 20 µM
8 | NCCCCCCNc1ncc(-c2ccc(Cl)cc2)[nH]1 | 4.24 | 3.28 | 16.1 | 22.3 | 86.5 | 71.2 | 28.3 | 16.1 | 42.1 | 14.6 | 90.8 | CC50 (HCT-116): 40 µM; CC50 (LN-229): 40 µM; CC50 (CAPAN-1): 40 µM; CC50 (HL-60): 13.2 µM; CC50 (NCI-H460): 40 µM; CC50 (Z-138; Homo sapiens, Z-138, 72 h): 11 µM; CC50 (K562): 36.2 µM
9 | NCCCCCCCNc1ncc(-c2ccccc2)[nH]1 | 12.4 | 17.3 | 39.7 | 33.3 | 64.7 | 106 | 48.9 | 72.6 | 12.3 | – | – | CC50 (CAPAN-1): 41.1 µM; CC50 (NCI-H460): 68.8 µM; Activity [12]: Non-toxic
10 | NCCCCCCCCCCCCNc1ncc(-c2ccccc2)[nH]1 | 6.7 | 9.6 | 9.5 | 12.3 | 25.4 | 14 | 12.8 | 19.7 | 23.8 | 1.95 | 32 | Time [20]: 3.5 days; viability at 72 h, 100 µM [15]: < 50%; fold change (FC) [21]: 2.75; viability at 72 h, 400 µM [14]: 4.5%; viability at 72 h, 25 µM [18]: 6%
11 | NCCCCCCCCCCCNc1ncc(-c2ccccc2)[nH]1 | 8.3 | 15.5 | 14.2 | 16.7 | 37.5 | 28.6 | 18.1 | 47.7 | 1.8 | 1.75 | 25 | Time [20]: 3 days
